Values quoted from earlier work in US11872093B1, “Method of marking lesions” (NoduGloH LLC, priority 2022, dated 2024).

Details: ICG dye marking without use of a coil

persistence of dye effect after marking without a coil: fade away over several hours
SMILES: CC1(C)C(/C=C/C=C/C=C/C=C2\N(CCCCS(=O)(=O)O)c3ccc4ccccc4c3C2(C)C)=[N+](CCCCS(=O)(=O)[O-])c2ccc3ccccc3c21 [ICG dye, Indocyanine Green]
